Earlier results, collected in patent publication EP0882446A1, “Antimicrobial skin cleansing compositions” (GOJO INDUSTRIES,INC., priority 1997, dated 1998).

Experiments:
[1] = at levels below about 3 percent by weight
[2] = test system: wide spectrum of bacteria; details: against a wide spectrum of bacteria; reported

Cc1cc(O)cc(C)c1Cl [PCMX, 4-chloro-3,5-dimethyl phenol]
toxicity and irritation to human skin [1]: non-toxic and non-irritating
antimicrobial activity relative to phenol [2]: 60 times
